The values that follow are results of earlier work, collected in patent publication US20220395522A1, “Methods of Use of Glucosamine for Increasing Nitrogen Retention” (TSI Bioproducts (Xuzhou) Co., Ltd., priority 2021, published 2022).

The conditions of the data set: cited from earlier work.

Regarding `N[C@H]1C(O)O[C@H](CO)[C@@H](O)[C@@H]1O` (some centres unmarked) [glucosamine], for the setting “human digestive tract”, the Ingested glucosamine absorbed is 10-12%. Under “in vivo”, the “Ingested glucosamine metabolized by members of the intestinal microbiota before it is absorbed” value is reported as “more than 50%”.
